This note sets out measurements from the supplement of paper PMC10307832.

Common to all, as to test: relative viability (nuclei count vs DMSO), 5 days (fraction); higher = more cells survive
Compound in experiment [1]: CN1CCN(c2ccc3nc(-c4c(N)c5c(F)cccc5[nH]c4=O)[nH]c3c2)CC1 [Dovitinib] + Cc1nc(Nc2ncc(C(=O)Nc3c(C)cccc3Cl)s2)cc(N2CCN(CCO)CC2)n1 [Dasatinib] (partner 0.075 µM)
The gist of the method: (§1)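 Each reported value is a median over duplicate plates. It expresses relative viability: treated-well nuclei count divided by vehicle-well nuclei count. Lung cancer cell lines in 1536-well plates were dosed by pin tool a day after seeding, alone with one drug or with a fixed anchor-drug dose plus five library-drug doses (not always all listed) in √10 steps, and nuclei were counted after 5 days.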

Compound in experiment [2]: CN1CCN(c2ccc3nc(-c4c(N)c5c(F)cccc5[nH]c4=O)[nH]c3c2)CC1 [Dovitinib] + O=C(CCCCCCC(=O)Nc1ccccc1)NO [Vorinostat] (partner 1 µM)
The essentials:
as §1

Compound in experiment [3]: CN1CCN(c2ccc3nc(-c4c(N)c5c(F)cccc5[nH]c4=O)[nH]c3c2)CC1 [Dovitinib] + C[C@@H](Oc1cc(-c2cnn(C3CCNCC3)c2)cnc1N)c1c(Cl)ccc(F)c1Cl [Crizotinib] (partner 1 µM)
The essentials: as §1

Compound in experiment [4]: CN1CCN(c2ccc3nc(-c4c(N)c5c(F)cccc5[nH]c4=O)[nH]c3c2)CC1 [Dovitinib] + CC1(C)CCC(c2ccc(Cl)cc2)=C(CN2CCN(c3ccc(C(=O)NS(=O)(=O)c4ccc(N[C@H](CCN5CCOCC5)CSc5ccccc5)c(S(=O)(=O)C(F)(F)F)c4)cc3)CC2)C1 [Navitoclax] (partner 0.5 µM)
The gist of the method:
as §1

For NCI-H2023, the relative viability amounted to 0.56 in experiment [1] (first compound 0.02 µM); 0.565 in experiment [1] (first compound 0.06325 µM); 0.612 in experiment [1] (first compound 0.2 µM); 0.578 in experiment [1] (first compound 0.6325 µM); 0.58 in experiment [1] (first compound 2 µM); 0.532 in experiment [2] (first compound 0.02 µM). In addition, the relative viability in experiment [2] (first compound 0.06325 µM) is 0.745; in experiment [2] (first compound 0.2 µM) it was 0.818; in experiment [2] (first compound 0.6325 µM) it was 0.683; in experiment [2] (first compound 2 µM) it was 0.579; in experiment [3] (first compound 0.02 µM), 0.55; in experiment [3] (first compound 0.06325 µM), 0.604. For the same cell line, the relative viability in experiment [3] (first compound 0.2 µM) was 0.591; in experiment [3] (first compound 0.6325 µM), 0.573; in experiment [3] (first compound 2 µM), 0.481; in experiment [4] (first compound 0.02 µM) it was 0.996; in experiment [4] (first compound 0.06325 µM), 1.03; in experiment [4] (first compound 0.2 µM), 1.04. For the same cell line, the relative viability is 0.945 in experiment [4] (first compound 0.6325 µM) and 0.929 in experiment [4] (first compound 2 µM).
As for COR-L 105, the relative viability in experiment [1] (first compound 0.02 µM) turned out to be 0.34; in experiment [1] (first compound 0.06325 µM), 0.34; in experiment [1] (first compound 0.2 µM), 0.332; in experiment [1] (first compound 0.6325 µM) it was 0.439; in experiment [1] (first compound 2 µM), 0.393; in experiment [2] (first compound 0.02 µM), 0.867. In addition, the relative viability in experiment [2] (first compound 0.06325 µM) stood at 0.801; in experiment [2] (first compound 0.2 µM), 0.833; in experiment [2] (first compound 0.6325 µM), 0.69; in experiment [2] (first compound 2 µM), 0.794; in experiment [3] (first compound 0.02 µM), 0.706; in experiment [3] (first compound 0.06325 µM) it was 0.832. Moreover, the relative viability in experiment [3] (first compound 0.2 µM) stood at 0.774; in experiment [3] (first compound 0.6325 µM), 0.701; in experiment [3] (first compound 2 µM), 0.69; in experiment [4] (first compound 0.02 µM), 0.701; in experiment [4] (first compound 0.06325 µM), 0.62; in experiment [4] (first compound 0.2 µM) it was 0.754. The relative viability in experiment [4] (first compound 0.6325 µM) came out at 0.646; in experiment [4] (first compound 2 µM), 0.806.
On to NCI-H1734, for which the relative viability in experiment [1] (first compound 0.02 µM) turned out to be 0.431; in experiment [1] (first compound 0.06325 µM), 0.501; in experiment [1] (first compound 0.2 µM), 0.436; in experiment [1] (first compound 0.6325 µM), 0.439; in experiment [1] (first compound 2 µM), 0.452; in experiment [2] (first compound 0.02 µM), 0.832. The relative viability in experiment [2] (first compound 0.06325 µM) was 0.773; in experiment [2] (first compound 0.2 µM), 0.784; in experiment [2] (first compound 0.6325 µM), 0.785; in experiment [2] (first compound 2 µM), 0.875; in experiment [3] (first compound 0.02 µM) it was 0.635; in experiment [3] (first compound 0.06325 µM) it was 0.664. In addition, the relative viability came to 0.637 in experiment [3] (first compound 0.2 µM); 0.598 in experiment [3] (first compound 0.6325 µM); 0.643 in experiment [3] (first compound 2 µM); 0.876 in experiment [4] (first compound 0.02 µM); 0.826 in experiment [4] (first compound 0.06325 µM); 0.849 in experiment [4] (first compound 0.2 µM). The relative viability in experiment [4] (first compound 0.6325 µM) was 0.851; in experiment [4] (first compound 2 µM) it was 0.822.
With NCI-H3122, the relative viability in experiment [1] (first compound 0.02 µM) was 0.721; in experiment [1] (first compound 0.06325 µM) it was 0.857; in experiment [1] (first compound 0.2 µM), 0.914; in experiment [1] (first compound 0.6325 µM), 0.832; in experiment [1] (first compound 2 µM), 0.749; in experiment [2] (first compound 0.02 µM), 0.823. The relative viability in experiment [2] (first compound 0.06325 µM) stood at 0.91; in experiment [2] (first compound 0.2 µM) it was 1.07; in experiment [2] (first compound 0.6325 µM), 0.951; in experiment [2] (first compound 2 µM), 1.08; in experiment [3] (first compound 0.02 µM) it was 0.294; in experiment [3] (first compound 0.06325 µM), 0.27. Moreover, the relative viability in experiment [3] (first compound 0.2 µM) is 0.287; in experiment [3] (first compound 0.6325 µM), 0.284; in experiment [3] (first compound 2 µM) it was 0.263; in experiment [4] (first compound 0.02 µM) it was 1.05; in experiment [4] (first compound 0.06325 µM), 1.03; in experiment [4] (first compound 0.2 µM), 0.954. Further, the figures for the relative viability in experiment [4] (first compound 0.6325 µM) and in experiment [4] (first compound 2 µM) were 1.02 and 1.07, respectively.
For CAL-12T, the relative viability in experiment [1] (first compound 0.02 µM) was 0.43; in experiment [1] (first compound 0.06325 µM), 0.486; in experiment [1] (first compound 0.2 µM), 0.465; in experiment [1] (first compound 0.6325 µM) it was 0.49; in experiment [1] (first compound 2 µM) it was 0.457; in experiment [2] (first compound 0.02 µM), 0.754. Besides, the relative viability in experiment [2] (first compound 0.06325 µM) is 0.73; in experiment [2] (first compound 0.2 µM) it was 0.926; in experiment [2] (first compound 0.6325 µM), 0.829; in experiment [2] (first compound 2 µM), 0.764; in experiment [3] (first compound 0.02 µM), 0.532; in experiment [3] (first compound 0.06325 µM), 0.628. In addition, the relative viability was 0.654 in experiment [3] (first compound 0.2 µM); 0.635 in experiment [3] (first compound 0.6325 µM); 0.661 in experiment [3] (first compound 2 µM); 1.24 in experiment [4] (first compound 0.02 µM); 1.12 in experiment [4] (first compound 0.06325 µM); 1.43 in experiment [4] (first compound 0.2 µM). Further, the relative viability in experiment [4] (first compound 0.6325 µM) came out at 1.17; in experiment [4] (first compound 2 µM), 1.42.
Consider HCC-78, for which the relative viability is 0.426 in experiment [1] (first compound 0.02 µM); 0.328 in experiment [1] (first compound 0.06325 µM); 0.392 in experiment [1] (first compound 0.2 µM); 0.453 in experiment [1] (first compound 0.6325 µM); 0.357 in experiment [1] (first compound 2 µM); 0.413 in experiment [2] (first compound 0.02 µM). Besides, the relative viability in experiment [2] (first compound 0.06325 µM) came out at 0.415; in experiment [2] (first compound 0.2 µM), 0.39; in experiment [2] (first compound 0.6325 µM) it was 0.533; in experiment [2] (first compound 2 µM) it was 0.431; in experiment [3] (first compound 0.02 µM), 0.334; in experiment [3] (first compound 0.2 µM) it was 0.356. The relative viability turned out to be 0.347 in experiment [3] (first compound 0.6325 µM); 0.363 in experiment [3] (first compound 2 µM); 0.784 in experiment [4] (first compound 0.02 µM); 0.827 in experiment [4] (first compound 0.2 µM); 0.754 in experiment [4] (first compound 0.6325 µM); 0.772 in experiment [4] (first compound 2 µM).
For NCI-H2085, the relative viability in experiment [1] (first compound 0.02 µM) stood at 0.234; in experiment [1] (first compound 0.06325 µM) it was 0.261; in experiment [1] (first compound 0.2 µM), 0.235; in experiment [1] (first compound 0.6325 µM), 0.248; in experiment [1] (first compound 2 µM) it was 0.319; in experiment [2] (first compound 0.02 µM) it was 0.808. The relative viability stood at 0.821 in experiment [2] (first compound 0.06325 µM); 0.819 in experiment [2] (first compound 0.2 µM); 0.765 in experiment [2] (first compound 0.6325 µM); 0.801 in experiment [2] (first compound 2 µM); 0.753 in experiment [3] (first compound 0.02 µM); 0.904 in experiment [3] (first compound 0.06325 µM). In addition, the relative viability in experiment [3] (first compound 0.2 µM) was 0.851; in experiment [3] (first compound 0.6325 µM), 0.856; in experiment [3] (first compound 2 µM), 0.9; in experiment [4] (first compound 0.02 µM), 1.05; in experiment [4] (first compound 0.06325 µM), 1.09; in experiment [4] (first compound 0.2 µM), 1.08. For the same cell line, the relative viability stood at 1.07 in experiment [4] (first compound 0.6325 µM) and 1.1 in experiment [4] (first compound 2 µM).
